Consider eight molecules from patent publication US20260049092A1, “ANTIBACTERIAL COMPOUNDS” (Blacksmith Medicines, Inc., priority 2022, published 2026).

Holding throughout (test): Bacterial susceptibility testing (MIC, broth microdilution)
What all share (format): cell-based
On the technique in general: Broth dilution looks for growth in wells or tubes with falling amounts of substance.

Test [1] relates to P. aeruginosa ATCC27853. Conditions: cation adjusted Mueller-Hinton Broth, 35° C., 18-24 h; for MIC: Pseudomonas aeruginosa, ATCC27853, broth microdilution, read-out: P. aeruginosa ATCC27853 MIC. The protocol:
(§1) Minimal inhibitory concentrations (MIC) were determined by the broth microdilution method in accordance with the Clinical and Laboratory Standards Institute (CLSI) guidelines. In brief, organism suspensions were adjusted to a final inoculum between 3×10^5 and 7×10^5 colony-forming units (CFU)/mL. Drug dilutions and inocula were made in sterile, cation adjusted Mueller-Hinton Broth (Beckton Dickinson). In wells, an inoculum volume of 100 μL was mixed to 2 μL of DMSO with 2-fold serial dilutions of drug. All inoculated microdilution trays were incubated in ambient air at 35° C. for 18-24 h. Following incubation, the lowest concentration of the drug that prevented visible growth (OD600 nm<0.05) was recorded as the MIC. Performance of the assay was monitored by the use of laboratory quality -control strains and compounds with defined MIC spectrum, in accordance with CLSI guidelines.

Test [2] deals with P. aeruginosa PAO1. Conditions: Pseudomonas aeruginosa, PAO1; broth microdilution, cation adjusted Mueller-Hinton Broth, 35° C., 18-24 h; read-out: P. aeruginosa PAO1 MIC. How it is done:
as §1

For test [3], the system named is K. pneumoniae ATCC13883. Particulars: cation adjusted Mueller-Hinton Broth, 35° C., 18-24 h; for MIC: Klebsiella pneumoniae, ATCC13883, broth microdilution, read-out: K. pneumoniae ATCC13883 MIC. How it is done: as §1
For test [4], the system named is E. coli ATCC25922. Conditions: cation adjusted Mueller-Hinton Broth, 35° C., 18-24 h; for MIC: Escherichia coli, ATCC25922, broth microdilution, read-out: E. coli ATCC25922 MIC. The protocol:
as §1

SMILES strings stand for the structures. In brackets after ≈: the same amount, converted by molar mass.

The term MIC denotes the smallest concentration in the dilution series that meets the test's criterion for growth inhibition.

`C[C@H](O)c1nccn1[C@@H](C#Cc1ccc(-c2ccc(O[C@@H]3COC[C@H]3O)cc2F)cc1)CO` (racemic) [Compound 1, (rac-trans)-4-((2-fluoro-4′-((S)-4-hydroxy-3-(2-((S)-1-hydroxyethyl)-1H-imidazol-1-yl)but-1-yn-1-yl)-[1,1′-biphenyl]-4-yl)oxy)tetrahydrofuran-3-ol]: the MIC stood at 4 µg/mL (≈ 8.84 µM) in test [1], 2 µg/mL (≈ 4.42 µM) in test [2], 2 µg/mL (≈ 4.42 µM) in test [3] and 0.5 µg/mL (≈ 1.11 µM) in test [4].
Regarding `C[C@H](O)c1nccn1[C@@H](C#Cc1ccc(-c2ccc(O[C@@H]3COC[C@H]3O)cc2)cc1F)CO` (racemic) [Compound 4, (rac-trans)-4-((3′-fluoro-4′-((S)-4-hydroxy-3-(2-((S)-1-hydroxyethyl)-1H-imidazol-1-yl)but-1-yn-1-yl)-[1,1′-biphenyl]-4-yl)oxy)tetrahydrofuran-3-ol], the MIC was 8 µg/mL (≈ 17.7 µM) in test [1], 8 µg/mL (≈ 17.7 µM) in test [2], 4 µg/mL (≈ 8.84 µM) in test [3] and 2 µg/mL (≈ 4.42 µM) in test [4].
On to `C[C@H](O)c1nccn1[C@@H](C#Cc1ccc(-c2ccc(O[C@@H]3COC[C@H]3O)cc2)c(F)c1)CO` (racemic) [Compound 5, (rac-trans)-4-((2′-fluoro-4′-((S)-4-hydroxy-3-(2-((S)-1-hydroxyethyl)-1H-imidazol-1-yl)but-1-yn-1-yl)-[1,1′-biphenyl]-4-yl)oxy)tetrahydrofuran-3-ol], for which the MIC in test [1] was found to be 4 µg/mL (≈ 8.84 µM); in test [2], 4 µg/mL (≈ 8.84 µM); in test [3] it was 4 µg/mL (≈ 8.84 µM); in test [4], 2 µg/mL (≈ 4.42 µM).
As for `C[C@H](O)c1nccn1[C@@H](C#Cc1ccc(-c2ccc(OC3COC[C@H]3O)c(F)c2)cc1)CO` (mixture of isomers) [Compound 6, (rac-trans)-4-((3-fluoro-4′-((S)-4-hydroxy-3-(2-((S)-1-hydroxyethyl)-1H-imidazol-1-yl)but-1-yn-1-yl)-[1,1′-biphenyl]-4-yl)oxy)tetrahydrofuran-3-ol], the MIC worked out at 4 µg/mL (≈ 8.84 µM) in test [1], 2 µg/mL (≈ 4.42 µM) in test [2], 4 µg/mL (≈ 8.84 µM) in test [3] and 2 µg/mL (≈ 4.42 µM) in test [4].
As to `C[C@H](O)c1nccn1[C@@H](C#Cc1ccc(-c2ccc(CO[C@@H]3COC[C@H]3O)c(F)c2)cc1)CO` (racemic) [Compound 44, (rac-trans)-4-((3-fluoro-4′-((S)-4-hydroxy-3-(2-((S)-1-hydroxyethyl)-1H-imidazol-1-yl)but-1-yn-1-yl)-[1,1′-biphenyl]-4-yl)methoxy)tetrahydrofuran-3-ol], the MIC in test [1] turned out to be 8 µg/mL (≈ 17.1 µM); in test [2] it was 8 µg/mL (≈ 17.1 µM); in test [3], 8 µg/mL (≈ 17.1 µM); in test [4], 4 µg/mL (≈ 8.57 µM).
`C[C@H](O)c1nccn1[C@@H](C#Cc1ccc(-c2ccc(O[C@@H]3CCOC[C@H]3O)c(F)c2)cc1)CO` (racemic) [Compound 51, (rac-trans)-4-((3-fluoro-4′-((S)-4-hydroxy-3-(2-((S)-1-hydroxyethyl)-1H-imidazol-1-yl)but-1-yn-1-yl)-[1,1′-biphenyl]-4-yl)oxy)tetrahydro-2H-pyran-3-ol]: the MIC in test [1] was 8 µg/mL (≈ 17.1 µM); in test [2] it was 2 µg/mL (≈ 4.29 µM); in test [3] it was 4 µg/mL (≈ 8.57 µM); in test [4], 2 µg/mL (≈ 4.29 µM).
With `C[C@H](O)c1nccn1[C@@H](C#Cc1ccc(-c2ccc(O[C@@H]3CCOC[C@H]3O)cc2F)cc1)CO` (racemic) [Compound 54, (rac-trans)-4-((2-fluoro-4′-((S)-4-hydroxy-3-(2-((S)-1-hydroxyethyl)-1H-imidazol-1-yl)but-1-yn-1-yl)-[1,1′-biphenyl]-4-yl)oxy)tetrahydro-2H-pyran-3-ol], the MIC in test [1] was found to be 8 µg/mL (≈ 17.1 µM); in test [2], 4 µg/mL (≈ 8.57 µM); in test [3], 2 µg/mL (≈ 4.29 µM); in test [4] it was 1 µg/mL (≈ 2.14 µM).
As for `C[C@H](O)c1nccn1[C@@H](C#Cc1ccc(-c2ccc(CO[C@H]3COC[C@@H]3O)c(F)c2)cc1)CO` (single isomer, unassigned) [Compound 46], the “P. aeruginosa ATCC27853 MIC” value in test [1] (broth microdilution) is 4 µg/mL. In addition, the “K. pneumoniae ATCC13883 MIC” value in test [3] (broth microdilution) was determined as 2 µg/mL. Also, the “E. coli ATCC25922 MIC” value in test [4] (broth microdilution) is 1 µg/mL.
